Measurements taken from the kinase profiling compilation of Christmann-Franck et al. (2016).
Values joined by “and” are separate entries in the source; they are usually repeats but may differ in a detail not shown here. Equal values may be shown once.

Assays:
Assay in all cases: radiometric filter-binding kinase assay, Kinase HotSpot
Details in all cases: compound 0.5 µM; ATP 10 µM
ABL2 (human) = ABL2 (human) (UniProt P42684)
ACVR1 (human) = ACVR1 (human) (UniProt Q04771)
ADRBK1 (human) = ADRBK1 (human) (UniProt P25098)
AKT3 (human) = AKT3 (human) (UniProt Q9Y243)
CAMK1 (human) = CAMK1 (human) (UniProt Q14012)
Sequence of CAMK1 (human) (Q14012 whole entry, looked up): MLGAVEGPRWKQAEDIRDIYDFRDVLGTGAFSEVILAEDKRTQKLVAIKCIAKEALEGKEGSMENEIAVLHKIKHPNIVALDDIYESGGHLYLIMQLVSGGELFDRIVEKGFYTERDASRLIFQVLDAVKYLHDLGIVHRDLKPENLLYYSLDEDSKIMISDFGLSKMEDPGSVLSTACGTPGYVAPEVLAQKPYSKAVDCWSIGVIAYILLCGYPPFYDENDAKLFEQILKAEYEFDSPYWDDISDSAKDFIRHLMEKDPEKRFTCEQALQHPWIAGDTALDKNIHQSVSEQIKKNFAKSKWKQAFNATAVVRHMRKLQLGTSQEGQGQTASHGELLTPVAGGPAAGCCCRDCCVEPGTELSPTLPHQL

CAMK1D (human) = CAMK1D (human) (UniProt Q8IU85)
CAMK2B (human) = CAMK2B (human) (UniProt Q13554)
CAMKK2 (human) = CAMKK2 (human) (UniProt Q96RR4)
Sequence of CAMKK2 (human) (Q96RR4 whole entry, looked up): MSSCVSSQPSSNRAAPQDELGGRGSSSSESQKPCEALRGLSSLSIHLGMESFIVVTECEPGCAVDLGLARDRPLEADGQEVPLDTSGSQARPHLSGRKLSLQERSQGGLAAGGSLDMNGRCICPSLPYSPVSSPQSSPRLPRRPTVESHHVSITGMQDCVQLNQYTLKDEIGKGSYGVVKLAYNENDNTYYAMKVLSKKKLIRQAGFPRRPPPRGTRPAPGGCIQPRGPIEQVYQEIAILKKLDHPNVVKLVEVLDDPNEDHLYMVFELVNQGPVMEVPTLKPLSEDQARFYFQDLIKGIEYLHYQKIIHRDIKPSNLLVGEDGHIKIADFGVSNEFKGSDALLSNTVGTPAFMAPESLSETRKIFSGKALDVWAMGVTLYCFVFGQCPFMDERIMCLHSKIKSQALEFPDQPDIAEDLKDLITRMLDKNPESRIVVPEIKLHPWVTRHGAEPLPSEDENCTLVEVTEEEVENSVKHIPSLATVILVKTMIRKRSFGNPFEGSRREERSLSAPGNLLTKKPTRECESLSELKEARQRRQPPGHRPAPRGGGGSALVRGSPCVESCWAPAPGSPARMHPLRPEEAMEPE

CDK1 CCNA2 (human) = CDK1 CCNA2 (human) (UniProt P06493+P20248)
Sequence of CDK1 CCNA2 (human) (P06493 whole entry, looked up): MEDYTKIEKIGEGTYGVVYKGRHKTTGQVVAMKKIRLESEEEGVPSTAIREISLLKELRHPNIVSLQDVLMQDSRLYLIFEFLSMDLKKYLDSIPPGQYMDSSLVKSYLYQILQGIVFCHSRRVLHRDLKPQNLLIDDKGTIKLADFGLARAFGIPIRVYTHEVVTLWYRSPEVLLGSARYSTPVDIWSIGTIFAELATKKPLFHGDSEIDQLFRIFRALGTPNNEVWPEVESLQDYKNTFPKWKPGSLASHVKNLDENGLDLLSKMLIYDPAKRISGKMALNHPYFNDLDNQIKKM
Sequence of CDK1 CCNA2 (human) (P20248 whole entry, looked up): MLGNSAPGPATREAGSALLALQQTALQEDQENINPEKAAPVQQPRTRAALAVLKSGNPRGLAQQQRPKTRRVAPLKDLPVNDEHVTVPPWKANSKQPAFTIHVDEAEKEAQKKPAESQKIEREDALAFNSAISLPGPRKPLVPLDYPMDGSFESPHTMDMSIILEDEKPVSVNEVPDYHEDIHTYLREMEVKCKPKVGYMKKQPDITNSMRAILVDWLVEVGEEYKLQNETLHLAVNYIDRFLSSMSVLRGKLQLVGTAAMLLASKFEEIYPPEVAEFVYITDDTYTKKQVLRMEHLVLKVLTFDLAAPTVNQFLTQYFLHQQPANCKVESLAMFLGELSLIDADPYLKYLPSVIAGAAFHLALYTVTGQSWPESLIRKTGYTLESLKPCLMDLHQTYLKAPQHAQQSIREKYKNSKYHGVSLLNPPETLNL

CDK2 CCNE1 (human) = CDK2 CCNE1 (human) (UniProt P24941+P24864)
CDK4 CCND1 (human) = CDK4 CCND1 (human) (UniProt P24385+P11802)
CDK4 CCND3 (human) = CDK4 CCND3 (human) (UniProt P30281+P11802)
CDK9 CCNT1 (human) = CDK9 CCNT1 (human) (UniProt P50750+O60563)
CLK2 (human) = CLK2 (human) (UniProt P49760)
CSNK1G3 (human) = CSNK1G3 (human) (UniProt Q9Y6M4)
EGFR (human) = EGFR (human) (UniProt P00533)
EPHA7 (human) = EPHA7 (human) (UniProt Q15375)
GRK6 (human) = GRK6 (human) (UniProt P43250)
GRK7 (human) = GRK7 (human) (UniProt Q8WTQ7)
HIPK4 (human) = HIPK4 (human) (UniProt Q8NE63)
IKBKE (human) = IKBKE (human) (UniProt Q14164)
LIMK1 (human) = LIMK1 (human) (UniProt P53667)
MAP3K14 (human) = MAP3K14 (human) (UniProt Q99558)
MAP4K5 (human) = MAP4K5 (human) (UniProt Q9Y4K4)
MARK1 (human) = MARK1 (human) (UniProt Q9P0L2)
MET (human) = MET (human) (UniProt P08581)
MLTK (human) = MLTK (human) (UniProt Q9NYL2)
MST1R (human) = MST1R (human) (UniProt Q04912)
Sequence of MST1R (human) (Q04912 whole entry, looked up): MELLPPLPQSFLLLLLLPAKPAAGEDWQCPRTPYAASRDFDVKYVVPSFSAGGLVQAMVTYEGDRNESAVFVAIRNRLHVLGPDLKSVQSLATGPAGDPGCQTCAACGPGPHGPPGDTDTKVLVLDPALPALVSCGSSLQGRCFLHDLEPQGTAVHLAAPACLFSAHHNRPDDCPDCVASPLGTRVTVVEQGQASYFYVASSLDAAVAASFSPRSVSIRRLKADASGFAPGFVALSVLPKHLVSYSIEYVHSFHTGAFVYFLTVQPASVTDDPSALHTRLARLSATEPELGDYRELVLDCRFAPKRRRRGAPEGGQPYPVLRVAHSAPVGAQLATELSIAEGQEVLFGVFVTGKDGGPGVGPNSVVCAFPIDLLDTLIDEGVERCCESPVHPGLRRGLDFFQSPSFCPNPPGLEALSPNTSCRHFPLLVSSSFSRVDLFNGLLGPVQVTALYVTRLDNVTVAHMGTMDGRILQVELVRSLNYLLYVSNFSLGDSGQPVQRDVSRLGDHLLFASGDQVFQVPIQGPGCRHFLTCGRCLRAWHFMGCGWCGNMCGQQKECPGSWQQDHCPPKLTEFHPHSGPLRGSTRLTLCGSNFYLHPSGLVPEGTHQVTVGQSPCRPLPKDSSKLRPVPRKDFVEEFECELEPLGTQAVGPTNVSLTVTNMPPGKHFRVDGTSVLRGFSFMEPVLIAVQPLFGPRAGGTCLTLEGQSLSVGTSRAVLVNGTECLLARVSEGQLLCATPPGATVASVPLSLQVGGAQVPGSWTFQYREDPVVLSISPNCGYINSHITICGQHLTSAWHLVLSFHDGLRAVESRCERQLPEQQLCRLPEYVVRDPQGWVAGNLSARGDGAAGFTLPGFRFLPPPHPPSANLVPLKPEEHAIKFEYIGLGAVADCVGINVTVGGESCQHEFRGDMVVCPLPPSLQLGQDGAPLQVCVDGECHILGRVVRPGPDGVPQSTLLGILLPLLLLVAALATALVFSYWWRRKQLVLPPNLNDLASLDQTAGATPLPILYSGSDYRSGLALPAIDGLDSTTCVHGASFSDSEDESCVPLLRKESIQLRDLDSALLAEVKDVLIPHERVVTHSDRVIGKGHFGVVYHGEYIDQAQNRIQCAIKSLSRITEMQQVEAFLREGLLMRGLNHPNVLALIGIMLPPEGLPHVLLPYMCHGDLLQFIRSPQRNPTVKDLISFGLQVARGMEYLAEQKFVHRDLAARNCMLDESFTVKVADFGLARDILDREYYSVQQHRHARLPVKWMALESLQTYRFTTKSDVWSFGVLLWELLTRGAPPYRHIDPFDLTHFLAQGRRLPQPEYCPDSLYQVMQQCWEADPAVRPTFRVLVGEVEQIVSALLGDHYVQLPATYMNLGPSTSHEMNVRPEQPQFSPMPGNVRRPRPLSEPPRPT

NEK4 (human) = NEK4 (human) (UniProt P51957)
NEK7 (human) = NEK7 (human) (UniProt Q8TDX7)
Sequence of NEK7 (human) (Q8TDX7 whole entry, looked up): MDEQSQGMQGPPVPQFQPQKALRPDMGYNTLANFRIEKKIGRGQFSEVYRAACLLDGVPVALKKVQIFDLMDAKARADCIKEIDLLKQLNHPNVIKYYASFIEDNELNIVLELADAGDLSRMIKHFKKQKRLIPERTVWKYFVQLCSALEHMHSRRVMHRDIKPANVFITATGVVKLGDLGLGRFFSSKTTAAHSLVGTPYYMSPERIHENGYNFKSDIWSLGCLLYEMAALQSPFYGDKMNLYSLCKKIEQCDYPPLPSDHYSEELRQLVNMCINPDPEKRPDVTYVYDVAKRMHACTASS

NTRK3 (human) = NTRK3 (human) (UniProt Q16288)
PHKG1 (human) = PHKG1 (human) (UniProt Q16816)
Sequence of PHKG1 (human) (Q16816 whole entry, looked up): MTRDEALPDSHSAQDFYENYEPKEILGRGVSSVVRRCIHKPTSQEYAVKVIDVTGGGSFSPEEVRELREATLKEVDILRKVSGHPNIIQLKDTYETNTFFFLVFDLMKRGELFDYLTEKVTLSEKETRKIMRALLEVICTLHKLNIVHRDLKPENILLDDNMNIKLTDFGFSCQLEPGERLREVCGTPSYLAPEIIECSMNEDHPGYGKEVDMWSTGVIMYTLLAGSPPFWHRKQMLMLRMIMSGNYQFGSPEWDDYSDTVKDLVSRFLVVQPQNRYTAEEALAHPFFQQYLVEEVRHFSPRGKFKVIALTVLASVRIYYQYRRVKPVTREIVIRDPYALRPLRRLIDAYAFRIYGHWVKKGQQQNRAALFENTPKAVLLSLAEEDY

PRKCB2 (human) = PRKCB2 (human) (UniProt P05771)
PRKCE (human) = PRKCE (human) (UniProt Q02156)
Sequence of PRKCE (human) (Q02156 whole entry, looked up): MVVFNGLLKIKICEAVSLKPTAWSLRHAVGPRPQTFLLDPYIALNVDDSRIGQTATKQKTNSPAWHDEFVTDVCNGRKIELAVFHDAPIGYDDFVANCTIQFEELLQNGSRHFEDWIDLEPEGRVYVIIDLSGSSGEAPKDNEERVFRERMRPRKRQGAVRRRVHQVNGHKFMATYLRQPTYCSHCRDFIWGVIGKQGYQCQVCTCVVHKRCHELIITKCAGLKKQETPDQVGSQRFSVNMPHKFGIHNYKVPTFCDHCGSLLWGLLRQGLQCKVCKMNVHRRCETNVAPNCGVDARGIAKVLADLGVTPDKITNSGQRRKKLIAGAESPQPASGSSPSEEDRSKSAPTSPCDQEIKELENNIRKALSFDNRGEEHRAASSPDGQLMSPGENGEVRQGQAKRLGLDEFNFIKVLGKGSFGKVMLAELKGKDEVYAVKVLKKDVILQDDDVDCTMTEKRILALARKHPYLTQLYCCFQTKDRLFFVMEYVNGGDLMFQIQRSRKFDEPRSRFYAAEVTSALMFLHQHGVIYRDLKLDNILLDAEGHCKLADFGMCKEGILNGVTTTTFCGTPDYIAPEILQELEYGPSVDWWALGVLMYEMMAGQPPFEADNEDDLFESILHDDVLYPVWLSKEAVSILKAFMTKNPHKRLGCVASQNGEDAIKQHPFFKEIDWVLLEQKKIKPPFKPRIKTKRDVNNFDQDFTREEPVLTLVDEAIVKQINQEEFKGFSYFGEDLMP

PRKD1 (human) = PRKD1 (human) (UniProt Q15139)
PRKG1 (human) = PRKG1 (human) (UniProt Q13976)
PTK2 (human) = PTK2 (human) (UniProt Q05397)
STK10 (human) = STK10 (human) (UniProt O94804)
STK11 (human) = STK11 (human) (UniProt Q15831)
STK39 (human) = STK39 (human) (UniProt Q9UEW8)
TGFBR1 (human) = TGFBR1 (human) (UniProt P36897)
Sequence of TGFBR1 (human) (P36897 whole entry, looked up): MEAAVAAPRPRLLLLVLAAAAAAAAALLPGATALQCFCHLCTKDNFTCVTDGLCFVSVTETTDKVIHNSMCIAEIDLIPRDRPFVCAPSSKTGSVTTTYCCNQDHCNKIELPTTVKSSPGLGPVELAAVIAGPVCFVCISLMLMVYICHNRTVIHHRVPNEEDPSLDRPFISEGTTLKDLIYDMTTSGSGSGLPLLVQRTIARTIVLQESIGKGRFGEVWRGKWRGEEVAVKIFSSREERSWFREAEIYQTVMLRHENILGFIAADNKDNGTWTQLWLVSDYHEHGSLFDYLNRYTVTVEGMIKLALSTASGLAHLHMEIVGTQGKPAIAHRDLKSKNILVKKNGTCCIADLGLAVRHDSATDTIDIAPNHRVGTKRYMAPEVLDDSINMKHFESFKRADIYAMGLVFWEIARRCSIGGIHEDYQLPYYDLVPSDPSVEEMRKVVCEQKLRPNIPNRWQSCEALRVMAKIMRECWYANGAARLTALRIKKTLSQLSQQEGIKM

TSSK2 (human) = TSSK2 (human) (UniProt Q96PF2)

Structure (SMILES): Oc1ccc(Nc2nc(-c3ccc(Cl)cc3)cs2)cc1
- residual activity (ABL2 (human)): 93.4%
- residual activity (ACVR1 (human)): 94.9%
- residual activity (ADRBK1 (human)): 100%
- residual activity (AKT3 (human)): 105%
- residual activity (CAMK1 (human)): 111%
- residual activity (CAMK1D (human)): 103%
- residual activity (CAMK2B (human)): 85.8%
- residual activity (CAMKK2 (human)): 101%
- residual activity (CDK1 CCNA2 (human)): 91.2%
- residual activity (CDK2 CCNE1 (human)): 91.9%
- residual activity (CDK4 CCND1 (human)): 108%
- residual activity (CDK4 CCND3 (human)): 108%
- residual activity (CDK9 CCNT1 (human)): 87.8%
- residual activity (CLK2 (human)): 102%
- residual activity (CSNK1G3 (human)): 103%
- residual activity (EGFR (human)): 95.3%
- residual activity (EPHA7 (human)): 97.7%
- residual activity (GRK6 (human)): 100%
- residual activity (GRK7 (human)): 109%
- residual activity (HIPK4 (human)): 101%
- residual activity (IKBKE (human)): 95.9%
- residual activity (LIMK1 (human)): 90.5%
- residual activity (MAP3K14 (human)): 102%
- residual activity (MAP4K5 (human)): 110%
- residual activity (MARK1 (human)): 93.7%
- residual activity (MET (human)): 99.4%
- residual activity (MLTK (human)): 92.7%
- residual activity (MST1R (human)): 92.5%
- residual activity (NEK4 (human)): 104%
- residual activity (NEK7 (human)): 106%
- residual activity (NTRK3 (human)): 102%
- residual activity (PHKG1 (human)): 96.5%
- residual activity (PRKCB2 (human)): 94.7%
- residual activity (PRKCE (human)): 99.6%
- residual activity (PRKD1 (human)): 96.8%
- residual activity (PRKG1 (human)): 94.1% and 98.5%
- residual activity (PTK2 (human)): 99.4%
- residual activity (STK10 (human)): 96.6%
- residual activity (STK11 (human)): 91.1%
- residual activity (STK39 (human)): 94.2%
- residual activity (TGFBR1 (human)): 99.9%
- residual activity (TSSK2 (human)): 102%

Structure (SMILES): O=C(Nc1cccc(Nc2cc(Nc3cccc(C(F)(F)F)c3)ncn2)c1)C1CC1
- residual activity (ABL2 (human)): 100%
- residual activity (ACVR1 (human)): 103%
- residual activity (ADRBK1 (human)): 97.9%
- residual activity (AKT3 (human)): 99.4%
- residual activity (CAMK1 (human)): 108%
- residual activity (CAMK1D (human)): 100%
- residual activity (CAMK2B (human)): 105%
- residual activity (CAMKK2 (human)): 98.5%
- residual activity (CDK1 CCNA2 (human)): 97.9%
- residual activity (CDK2 CCNE1 (human)): 96.7%
- residual activity (CDK4 CCND1 (human)): 103%
- residual activity (CDK4 CCND3 (human)): 105%
- residual activity (CDK9 CCNT1 (human)): 97.2%
- residual activity (CLK2 (human)): 97.3%
- residual activity (CSNK1G3 (human)): 107%
- residual activity (EGFR (human)): 5.82%
- residual activity (EPHA7 (human)): 101%
- residual activity (GRK6 (human)): 98.3%
- residual activity (GRK7 (human)): 99%
- residual activity (HIPK4 (human)): 101%
- residual activity (IKBKE (human)): 97.7%
- residual activity (LIMK1 (human)): 95.9%
- residual activity (MAP3K14 (human)): 77.9%
- residual activity (MAP4K5 (human)): 96.1%
- residual activity (MARK1 (human)): 102%
- residual activity (MET (human)): 103%
- residual activity (MLTK (human)): 97.1%
- residual activity (MST1R (human)): 107%
- residual activity (NEK4 (human)): 90.6%
- residual activity (NEK7 (human)): 97.8%
- residual activity (NTRK3 (human)): 95.1%
- residual activity (PHKG1 (human)): 100%
- residual activity (PRKCB2 (human)): 107%
- residual activity (PRKCE (human)): 89.2%
- residual activity (PRKD1 (human)): 100%
- residual activity (PRKG1 (human)): 90.6% and 96.4%
- residual activity (PTK2 (human)): 105%
- residual activity (STK10 (human)): 95.7%
- residual activity (STK11 (human)): 100%
- residual activity (STK39 (human)): 94.1%
- residual activity (TGFBR1 (human)): 97.4%
- residual activity (TSSK2 (human)): 103%

Structure (SMILES): Cc1nc2cc3nc(-c4cccs4)cnc3cc2n1C
- residual activity (ABL2 (human)): 100%
- residual activity (ACVR1 (human)): 99.3%
- residual activity (ADRBK1 (human)): 83.7%
- residual activity (AKT3 (human)): 112%
- residual activity (CAMK1 (human)): 98.1%
- residual activity (CAMK1D (human)): 107%
- residual activity (CAMK2B (human)): 101%
- residual activity (CAMKK2 (human)): 112%
- residual activity (CDK1 CCNA2 (human)): 102%
- residual activity (CDK2 CCNE1 (human)): 91.4%
- residual activity (CDK4 CCND1 (human)): 108%
- residual activity (CDK4 CCND3 (human)): 101%
- residual activity (CDK9 CCNT1 (human)): 88.3%
- residual activity (CLK2 (human)): 95.3%
- residual activity (CSNK1G3 (human)): 96.1%
- residual activity (EGFR (human)): 104%
- residual activity (EPHA7 (human)): 92.5%
- residual activity (GRK6 (human)): 104%
- residual activity (GRK7 (human)): 96.6%
- residual activity (HIPK4 (human)): 103%
- residual activity (IKBKE (human)): 89.8%
- residual activity (LIMK1 (human)): 112%
- residual activity (MAP3K14 (human)): 97.4%
- residual activity (MAP4K5 (human)): 94.8%
- residual activity (MARK1 (human)): 102%
- residual activity (MET (human)): 111%
- residual activity (MLTK (human)): 89.1%
- residual activity (MST1R (human)): 107%
- residual activity (NEK4 (human)): 95.2%
- residual activity (NEK7 (human)): 86.5%
- residual activity (NTRK3 (human)): 59.9%
- residual activity (PHKG1 (human)): 98.2%
- residual activity (PRKCB2 (human)): 121%
- residual activity (PRKCE (human)): 108%
- residual activity (PRKD1 (human)): 97.7%
- residual activity (PRKG1 (human)): 98.5% and 99.7%
- residual activity (PTK2 (human)): 117%
- residual activity (STK10 (human)): 94.7%
- residual activity (STK11 (human)): 89.6%
- residual activity (STK39 (human)): 79.8%
- residual activity (TGFBR1 (human)): 98.7%
- residual activity (TSSK2 (human)): 98.2%
